Data on 19 molecules can be found in patent US5852007A, “Cysteine and serine protease inhibitors containing D-amino acid at the P2 position, methods of making same, and methods of using same” (priority 1997, dated 1998).

By IC50 is commonly meant the concentration at which inhibition is half-maximal.

Square brackets hold non-standard residues; d marks the D form. Peptide text beside a SMILES is read from it. * marks the point of attachment. Tos = Cc1ccc(S(=O)(=O)*)cc1; dΔPro = O=C(O)[C@H]1C=CCN1; Bn = c1ccc(C*)cc1; Ms = CS(=O)(=O)*

What all share (assay type): biochemical
The target in assay [1] is T1, Recombinant human calpain I (Homo sapiens, UniProt P07384).
T1 construct: made in house
T1 sequence (P07384 1-714): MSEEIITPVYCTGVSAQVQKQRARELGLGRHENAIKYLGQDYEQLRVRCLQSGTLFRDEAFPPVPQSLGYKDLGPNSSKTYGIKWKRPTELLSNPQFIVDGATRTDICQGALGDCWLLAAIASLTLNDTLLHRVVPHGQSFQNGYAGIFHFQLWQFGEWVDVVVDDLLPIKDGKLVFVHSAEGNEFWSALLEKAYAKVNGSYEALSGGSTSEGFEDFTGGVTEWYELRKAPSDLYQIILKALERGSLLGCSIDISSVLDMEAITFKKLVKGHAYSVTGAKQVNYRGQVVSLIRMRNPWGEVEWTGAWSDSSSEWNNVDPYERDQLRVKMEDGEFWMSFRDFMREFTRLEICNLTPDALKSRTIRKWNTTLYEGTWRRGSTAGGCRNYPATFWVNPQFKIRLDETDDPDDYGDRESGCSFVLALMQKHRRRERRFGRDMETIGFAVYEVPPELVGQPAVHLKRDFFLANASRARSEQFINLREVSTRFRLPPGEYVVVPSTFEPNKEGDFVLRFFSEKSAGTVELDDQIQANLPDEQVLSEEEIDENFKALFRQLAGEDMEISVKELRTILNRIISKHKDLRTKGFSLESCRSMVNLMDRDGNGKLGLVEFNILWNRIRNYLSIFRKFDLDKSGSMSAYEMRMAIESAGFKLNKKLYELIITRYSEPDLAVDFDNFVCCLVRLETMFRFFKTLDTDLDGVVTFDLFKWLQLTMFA
The experiment in a line: Inhibition of calpain I activity. Particulars: Table III.

The target in a further assay is T2, thrombin (Homo sapiens, UniProt P00734).
T2 construct: purchased Sigma Chem. Co. T-7009
The experiment in a line: Inhibition of thrombin. Particulars: Table III, 10 uM; for inhibition at 10 µM: read-out: Thrombin % I @ 10 uM.

Another assay addresses T3, cathepsin L (Homo sapiens, UniProt P07711).
T3 construct: purchased Calbiochem 219402
The experiment in a line: Inhibition of cathepsin L. Particulars: Table III; 1 uM; read-out: Cat L % I @ 1 uM. Here is the method:
(§1) Additionally,the order of reagents added to the plate was altered because both enzymes are constitutively active. Following inhibitor addition to the plates, appropriate 2× concentrated stock dilutions of the enzyme preparations were made in assay buffer and 100 μl added to each well. The assay was initiated by addition of 100 μl of 2× concentrated stock dilution of substrate in assay buffer.

Another assay deals with T4, α-chymotrypsin (Bos taurus, UniProt P00766).
T4 construct: purchased Sigma Chem. Co. C-3142
As to the kind of experiment: Inhibition of α-chymotrypsin. Particulars: Table III, 10 uM; for inhibition at 10 µM: read-out: Chymotrypsin % I @ 10 uM. In outline:
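Enzyme added to inhibitor first, then reaction started with substrate; no calcium activation needed as enzyme is constitutively active. Fluorogenic substrate hydrolysis read every 5 min up to 30 min ([…]).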

The next assay deals with T5, cathepsin B (Homo sapiens, UniProt P07858).
T5 construct: purchased Calbiochem 219364
The experiment in a line: Inhibition of cathepsin B. Particulars: Table III; for inhibition at 1 µM: read-out: Cat B % I @ 1 uM. Here is the method:
as §1

T3 sequence (P07711 114-288 limits assumed): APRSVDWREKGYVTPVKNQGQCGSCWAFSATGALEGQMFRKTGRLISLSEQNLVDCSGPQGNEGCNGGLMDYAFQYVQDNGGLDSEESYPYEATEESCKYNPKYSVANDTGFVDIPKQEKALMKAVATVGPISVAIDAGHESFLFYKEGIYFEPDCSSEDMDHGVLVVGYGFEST
T3 sequence (P07711 292-333 limits assumed): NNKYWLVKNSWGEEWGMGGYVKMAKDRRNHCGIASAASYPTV

`Cc1ccc(S(=O)(=O)N2CCC[C@@H]2C(=O)N[C@H](C=O)Cc2ccccc2)cc1` [Compound 120] (Tos-[dP]-Phe-aldehyde): the concentration for half-maximal inhibition (IC50) in assay [1] was 0.014 µM. Moreover, in assay [1], the inhibition at 0.1 µM was 87%. The inhibition at 10 µM amounted to 0% on thrombin and 12% at α-chymotrypsin. Moreover, the values for the inhibition at 1 µM at cathepsin L and at cathepsin B were 65% and 50%, respectively.

Take `Cc1noc(C)c1S(=O)(=O)N[C@H](COCc1ccccc1)C(=O)N[C@H](C=O)Cc1ccccc1` [Compound 55]: the IC50 in assay [1] stood at 0.025 µM. In addition, the inhibition at 0.1 µM in assay [1] worked out at 87%. In addition, the inhibition at 10 µM at thrombin is 2%; on α-chymotrypsin, 12%. In addition, the inhibition at 1 µM on cathepsin L amounted to 100%; at cathepsin B it was 90%.

`CS(=O)(=O)N[C@H](COCc1ccccc1)C(=O)N[C@@H](Cc1ccccc1)C(O)CCc1ccccc1` (stereo partly shown) [Compound 124]: in assay [1], the inhibition at 0.1 µM turned out to be 20%. The values for the inhibition at 10 µM on thrombin and at α-chymotrypsin were 2% and 0%, respectively. Further, the inhibition at 1 µM at cathepsin L came out at 17%; at cathepsin B it was 27%.

As for `Cc1ccc(S(=O)(=O)N2C[C@@H](N=[N+]=[N-])C[C@@H]2C(=O)N[C@H](C=O)Cc2ccccc2)cc1` [Compound 114], the inhibition at 0.1 µM in assay [1] was determined as 85%. Moreover, the figures for the inhibition at 10 µM on thrombin and at α-chymotrypsin were 3% and 9%, respectively. For the same molecule, the inhibition at 1 µM stood at 100% at cathepsin L and 24% at cathepsin B.

With `CS(=O)(=O)N[C@H](COCc1ccccc1)C(=O)N[C@H](C=NNC(N)=O)Cc1ccccc1` [Compound 115], the inhibition at 0.1 µM in assay [1] amounted to 0%. The inhibition at 10 µM on thrombin and at α-chymotrypsin was 0% in each case. In addition, the inhibition at 1 µM at cathepsin L came out at 94%; on cathepsin B it was 47%.

Regarding `Cc1ccc(S(=O)(=O)O[C@H]2C[C@H](C(=O)N[C@H](C=O)Cc3ccccc3)N(S(=O)(=O)c3ccccc3)C2)cc1` [Compound 113], the inhibition at 0.1 µM in assay [1] was 11%. The inhibition at 10 µM on thrombin and at α-chymotrypsin was 0% in each case. For the same molecule, the inhibition at 1 µM on cathepsin L came out at 94%; at cathepsin B, 47%.

`CS(=O)(=O)N[C@H](COCc1ccccc1)C(=O)N[C@H](C=NO)Cc1ccccc1` [Compound 118]: in assay [1], the inhibition at 0.1 µM amounted to 31%. In addition, the inhibition at 10 µM was 0% at thrombin and 8% at α-chymotrypsin. Besides, the inhibition at 1 µM came out at 99% at cathepsin L and 33% on cathepsin B.

For the molecule `O=C[C@H](Cc1ccccc1)NC(=O)[C@@H](COCc1ccccc1)NS(=O)(=O)c1ccc2ccccc2c1` [Compound 52], the IC50 in assay [1] was determined as 0.028 µM; on cathepsin B (read-out: Cat B IC50) it was 0.004 µM. For the same molecule, the inhibition at 0.1 µM in assay [1] came to 93%. The figures for the inhibition at 10 µM on thrombin and at α-chymotrypsin were 10% and 0%, respectively. In addition, the inhibition at 1 µM at cathepsin L and on cathepsin B was 100% in each case.

With `CN([C@H](COCc1ccccc1)C(=O)N[C@H](C=O)Cc1ccccc1)S(C)(=O)=O` [Compound 83], the half-maximal inhibitory concentration (IC50) in assay [1] came out at 0.52 µM. Besides, the inhibition at 0.1 µM in assay [1] came to 37%. The figures for the inhibition at 10 µM on thrombin and at α-chymotrypsin were 7% and 0%, respectively. Besides, the values for the inhibition at 1 µM on cathepsin L and at cathepsin B were 53% and 62%, respectively.

Consider `Cc1ccc(S(=O)(=O)N2CC=C[C@@H]2C(=O)N[C@H](C=O)Cc2ccccc2)cc1` [Compound 130] (Tos-[dΔPro]-Phe-aldehyde), for which the half-maximal inhibitory concentration (IC50) in assay [1] was found to be 0.01 µM. Besides, the inhibition at 0.1 µM in assay [1] amounted to 90%. Moreover, the values for the inhibition at 10 µM on thrombin and on α-chymotrypsin were 9% and 0%, respectively. In addition, the inhibition at 1 µM amounted to 97% on cathepsin L and 62% at cathepsin B.

In the case of `Cc1nn(C)c(Cl)c1S(=O)(=O)N[C@H](COCc1ccccc1)C(=O)N[C@H](C=O)Cc1ccccc1` [Compound 91], in assay [1], the inhibition at 0.1 µM was determined as 30%. The inhibition at 10 µM on thrombin is 0%; on α-chymotrypsin it was 53%. The figures for the inhibition at 1 µM at cathepsin L and on cathepsin B were 100% and 68%, respectively.

Consider `CS(=O)(=O)NC(CCSCc1ccccc1)C(=O)N[C@H](C=O)Cc1ccccc1` (single isomer, unassigned) [Compound 107], for which, in assay [1], the concentration for half-maximal inhibition (IC50) came out at 0.067 µM and the inhibition at 0.1 µM amounted to 63%. The “Thrombin % I @ 10 uM” value at thrombin is given as 2%. Besides, the inhibition at 1 µM on cathepsin L was determined as 100%. Also, at α-chymotrypsin, the “Chymotrypsin % I @ 10 uM” value turned out to be 11%. Also, the inhibition at 1 µM on cathepsin B was found to be 97%.

On to `CS(=O)(=O)N[C@H](COCc1ccccc1)C(=O)N[C@H](C=O)CCCCNC(=O)OCc1ccccc1` [Compound 92], for which the IC50 in assay [1] is 0.004 µM. For the same molecule, in assay [1], the inhibition at 0.1 µM was determined as 100%. Further, the inhibition at 10 µM at thrombin and at α-chymotrypsin was 0% each time. The inhibition at 1 µM at cathepsin L and on cathepsin B was 100% throughout.

As for `CC(C)C[C@@H](C=O)NC(=O)[C@@H](COCc1ccccc1)NS(C)(=O)=O` [Compound 88] (Ms-[dS](Bn)-Leu-aldehyde), the IC50 in assay [1] was 0.093 µM. The inhibition at 0.1 µM in assay [1] is 40%. The inhibition at 10 µM came out at 5% at thrombin and 0% at α-chymotrypsin. Besides, the inhibition at 1 µM was determined as 91% on cathepsin L and 88% on cathepsin B.

As for `CS(=O)(=O)N[C@H](CSCc1ccccc1)C(=O)N[C@H](C=O)Cc1ccccc1` [Compound 106] (Ms-[dC](Bn)-Phe-aldehyde), in assay [1], the concentration for half-maximal inhibition (IC50) is 0.008 µM. Moreover, the inhibition at 0.1 µM in assay [1] was found to be 95%. The inhibition at 10 µM on thrombin was 7%; on α-chymotrypsin, 16%. For the same molecule, the inhibition at 1 µM was 100% at cathepsin L and 92% at cathepsin B.

Take `O=C[C@H](Cc1ccccc1)NC(=O)[C@H]1C[C@@H](OS(=O)(=O)c2ccccc2)CN1S(=O)(=O)c1ccccc1` [Compound 112]: the inhibition at 0.1 µM in assay [1] stood at 7%. Moreover, the results for the inhibition at 10 µM on thrombin and on α-chymotrypsin were 0% and 9%, respectively. Besides, the results for the inhibition at 1 µM on cathepsin L and at cathepsin B were 100% and 25%, respectively.

For `CC(C)(C)OC(=O)N[C@H](COCc1ccccc1)C(=O)N[C@H](C=O)Cc1ccccc1` [Compound 82], the inhibition at 0.1 µM in assay [1] came to 4%. In addition, the results for the inhibition at 10 µM at thrombin and at α-chymotrypsin were 6% and 8%, respectively. In addition, the inhibition at 1 µM is 93% on cathepsin L and 60% on cathepsin B.

As for `CS(=O)(=O)N1CCC[C@@H]1C(=O)N[C@H](C=O)Cc1ccccc1` [Compound 101] (Ms-[dP]-Phe-aldehyde), the IC50 in assay [1] stood at 0.053 µM. Besides, the inhibition at 0.1 µM in assay [1] turned out to be 84%. Also, the inhibition at 10 µM was determined as 0% on thrombin and 2% at α-chymotrypsin. Also, the inhibition at 1 µM at cathepsin L came out at 100%; on cathepsin B, 46%.

As for `CS(=O)(=O)N[C@H](COCc1ccccc1)C(=O)N[C@@H](Cc1ccccc1)C1N(c2ccccc2)CCN1c1ccccc1` [Compound 132], the inhibition at 0.1 µM in assay [1] stood at 63%. In addition, the inhibition at 10 µM at thrombin and on α-chymotrypsin was 0% in each case. Also, the inhibition at 1 µM at cathepsin L worked out at 100%; at cathepsin B, 78%.
